# Legend:
# [1] = Water contact angle of modified surfaces; format: physicochemical; conditions: modified glass surface, Millipore water drops
# Description: The water contact angles of bare glass, OEG8, RGD, and DM50CO50-modified surfaces were measured with a contact angle meter (JC2000D2) from Shanghai Zhongchen Digital Technology Apparatus Co., Ltd. Liquid drops (Millipore water) were delivered to the surface using a microsyringe.
# [2] = test system: MC3T3-E1 preosteoblast cells; test: Cell spreading area on modified surfaces (immunofluorescence analysis of cell morphology); format: cell-based, mouse
# Description: The degree of cell spreading on a functionalized glass slide was measured by immunofluorescence analysis. After culture medium was removed, the slide was washed with PBS and then cells on the slide were fixed with 4% paraformaldehyde for 20 min. The slide was washed with PBS thrice and incubated for 5 min with 0.4% triton-X in PBS. Subsequently, the slide was washed with PBS thrice, followed by blocking with 3% bovine serum albumin (BSA) in PBS for 1 h at rt and then incubated with Alexa Fluor-555-conjugated anti-vinculin antibody (1:300 in PBS) overnight at 4 °C. The slide was washed with PBS thrice and incubated for 2 h with FITC-phalloidin (1:200 in PBS) and 4′-6-diamidino-2-phenylindole (DAPI) (5 μg/mL) for 10 min. The slide was washed with PBS thrice and its fluorescent images were collected on a confocal microscope (Nikon A1R, Japan).
# [3] = test system: MC3T3-E1 preosteoblast cells; test: Integrin αvβ3 to block RGD, cell adhesion; format: cell-based, mouse; set-up: unit not given here; conditions: for Cell density (figure 5g) / Cell spreading area (figure 5f): - αvβ3: serum-incubated surface without integrin αvβ3, 2 h after seeding; for Supplementary Figure8, cell adhesion on modified surface: - αvβ3
# Description: An aliquot of 10 μL α-MEM medium containing 10% FBS was added to each well (formed by a 50-well coverslip on the top of a glass slide) and the slide was incubated in a humidified atmosphere at 37 °C for 2 h[24]. The slide was washed with PBS and incubated with integrin αvβ3 (10 µg/mL in PBS) at 37 °C for 1 h. Then cells at a concentration of 1.5 × 10^5 cells/mL in a serum-free medium were added to each individual well, having bottom surface modified with DM50CO50 or RGD peptide. After the slide was incubated at 37 °C for 2 h, cells in each well were stained with a live/dead staining solution and the fluorescent images were captured under a microscope (Nikon Eclipse Ti-S, Japan) at eight different locations in each well. The collected images were analyzed using the Image-pro plus software.
substance,measurement,setting,value
"RGDSPC [cell adhesion gold standard RGD peptide (RGDSPC), attached to surface]",Water contact angle,[1],41 °
same,Cell area of preosteoblast cells,"[2]; cultured on modified surface for 3 h, replicate 1",3956
same,Cell area of preosteoblast cells,"[2]; cultured on modified surface for 3 h, replicate 2",3895
same,Cell area of preosteoblast cells,"[2]; cultured on modified surface for 3 h, replicate 3",3549
same,Cell area of preosteoblast cells,"[2]; cultured on modified surface for 24 h, replicate 1",4800
same,Cell area of preosteoblast cells,"[2]; cultured on modified surface for 24 h, replicate 2",4752
same,Cell area of preosteoblast cells,"[2]; cultured on modified surface for 24 h, replicate 3",4625
same,Cell density (figure 5g),[3]; value 1 of n = 9,80
same,Cell spreading area (figure 5f),[3]; value 1 of n = 9,3308.7
same,Cell density (figure 5g),[3]; value 2 of n = 9,69
same,Cell spreading area (figure 5f),[3]; value 2 of n = 9,3551.3
same,Cell density (figure 5g),[3]; value 3 of n = 9,74
same,Cell spreading area (figure 5f),[3]; value 3 of n = 9,2958.5
same,Cell density (figure 5g),[3]; value 4 of n = 9,75
same,Cell spreading area (figure 5f),[3]; value 4 of n = 9,3300.7
same,Cell density (figure 5g),[3]; value 5 of n = 9,69
same,Cell spreading area (figure 5f),[3]; value 5 of n = 9,3020
same,Cell density (figure 5g),[3]; value 6 of n = 9,79
same,Cell spreading area (figure 5f),[3]; value 6 of n = 9,2866.3
same,Cell density (figure 5g),[3]; value 7 of n = 9,74
same,Cell spreading area (figure 5f),[3]; value 7 of n = 9,2910.3
same,Cell density (figure 5g),[3]; value 8 of n = 9,73
same,Cell spreading area (figure 5f),[3]; value 8 of n = 9,3174.3
same,Cell density (figure 5g),[3]; value 9 of n = 9,70
same,Cell spreading area (figure 5f),[3]; value 9 of n = 9,3494.7
same,"Supplementary Figure8, cell adhesion on modified surface",[3]; replicate 1,0.61
same,"Supplementary Figure8, cell adhesion on modified surface",[3]; replicate 2,0.2888
same,"Supplementary Figure8, cell adhesion on modified surface",[3]; replicate 3,0.3748

# From publication PMC7835237, “Dual mechanism β-amino acid polymers promoting cell adhesion” (Nature Communications, 2021)
